Experimental data: PubChem BioAssay (NCI)
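The compound was tested at five concentrations on cells cultured in 96-well plates, with a 48-hour exposure period. Definition used: TGI = concentration required for complete inhibition of growth.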

Key:
Test in all cases: growth of human tumour cells (NCI), 48 h
[1] = tested on: EKVX NSCLC
[2] = tested on: SNB-75 CNS
[3] = tested on: OVCAR-5 ovarian
[4] = tested on: HCC-2998 colon
[5] = tested on: HL-60(TB) leukemia
[6] = tested on: OVCAR-3 ovarian
[7] = tested on: TK-10 renal
[8] = tested on: OVCAR-4 ovarian
[9] = tested on: K-562 leukemia
[10] = tested on: IGROV1 ovarian
[11] = tested on: SW-620 colon
[12] = tested on: SK-OV-3 ovarian
[13] = tested on: UACC-257 melanoma
[14] = tested on: HCT-116 colon
[15] = tested on: HT29 colon
[16] = tested on: M14 melanoma
[17] = tested on: PC-3 prostate
[18] = tested on: SN12C renal
[19] = tested on: MDA-N
[20] = tested on: HCT-15 colon
[21] = tested on: SK-MEL-5 melanoma
[22] = tested on: CCRF-CEM leukemia
[23] = tested on: NCI-H460 lung
[24] = tested on: RXF 393 renal
[25] = tested on: SNB-19 CNS
[26] = tested on: UACC-62 melanoma
[27] = tested on: NCI-H226 lung
[28] = tested on: OVCAR-8 ovarian
[29] = tested on: 786-0 renal
[30] = tested on: MCF7 breast
[31] = tested on: COLO 205 colon
[32] = tested on: NCI-H23 lung
[33] = tested on: ACHN renal
[34] = tested on: MDA-MB-231 breast
[35] = tested on: SF-268 CNS
[36] = tested on: T-47D breast
[37] = tested on: LOX IMVI melanoma
[38] = tested on: BT-549 breast
[39] = tested on: SF-295 CNS
[40] = tested on: DU-145 prostate
[41] = tested on: KM12 colon
[42] = tested on: UO-31 renal
[43] = tested on: A498 renal
[44] = tested on: SR leukemia
[45] = tested on: NCI-H522 lung
[46] = tested on: SK-MEL-28 melanoma
[47] = tested on: HS 578T breast
[48] = tested on: U251 CNS
[49] = tested on: MOLT-4 leukemia
[50] = tested on: A549 NSCLC
[51] = tested on: SK-MEL-2 melanoma
[52] = tested on: CAKI-1 renal
[53] = tested on: HOP-92 NSCLC
[54] = tested on: HOP-62 NSCLC
[55] = tested on: MDA-MB-435
[56] = tested on: NCI/ADR-RES ovarian
[57] = tested on: MALME-3M melanoma
[58] = tested on: SF-539 CNS

Structure (SMILES): c1cncc(CSc2ncnc3nc[nH]c23)c1
- TGI [1]: > 100 µM
- TGI [2]: > 100 µM
- TGI [3]: > 100 µM
- TGI [4]: > 100 µM
- TGI [5]: > 100 µM
- TGI [6]: > 100 µM
- TGI [7]: > 100 µM
- TGI [8]: > 100 µM
- TGI [9]: > 100 µM
- TGI [10]: > 100 µM
- TGI [11]: > 100 µM
- TGI [12]: > 100 µM
- TGI [13]: > 100 µM
- TGI [14]: > 100 µM
- TGI [15]: > 100 µM
- TGI [16]: > 100 µM
- TGI [17]: > 100 µM
- TGI [18]: > 100 µM
- TGI [19]: > 100 µM
- TGI [20]: > 100 µM
- TGI [21]: > 100 µM
- TGI [22]: > 100 µM
- TGI [23]: > 100 µM
- TGI [24]: > 100 µM
- TGI [25]: > 100 µM
- TGI [26]: > 100 µM
- TGI [27]: > 100 µM
- TGI [28]: > 100 µM
- TGI [29]: > 100 µM
- TGI [30]: > 100 µM
- TGI [31]: > 100 µM
- TGI [32]: > 100 µM
- TGI [33]: > 100 µM
- TGI [34]: > 100 µM
- TGI [35]: > 100 µM
- TGI [36]: > 100 µM
- TGI [37]: > 100 µM
- TGI [38]: > 100 µM
- TGI [39]: > 100 µM
- TGI [40]: > 100 µM
- TGI [41]: > 100 µM
- TGI [42]: > 100 µM
- TGI [43]: > 100 µM
- TGI [44]: > 100 µM
- TGI [45]: > 100 µM
- TGI [46]: > 100 µM
- TGI [47]: > 100 µM
- TGI [48]: > 100 µM
- TGI [49]: > 100 µM
- TGI [50]: > 100 µM
- TGI [51]: > 100 µM
- TGI [52]: > 100 µM
- TGI [53]: > 100 µM
- TGI [54]: > 100 µM
- TGI [55]: > 100 µM
- TGI [56]: > 100 µM
- TGI [57]: > 100 µM

Structure (SMILES): c1ccc2c(-c3csc(-c4c[nH]c5ccccc45)n3)c[nH]c2c1
- TGI [1]: > 100 µM
- TGI [2]: > 79.1 µM
- TGI [3]: > 100 µM
- TGI [4]: > 100 µM
- TGI [5]: 47.6 µM
- TGI [6]: > 100 µM
- TGI [7]: > 100 µM
- TGI [8]: > 100 µM
- TGI [9]: 15.1 µM
- TGI [10]: > 100 µM
- TGI [11]: > 100 µM
- TGI [12]: > 100 µM
- TGI [13]: > 100 µM
- TGI [14]: > 100 µM
- TGI [15]: > 83.6 µM
- TGI [16]: > 100 µM
- TGI [17]: > 100 µM
- TGI [18]: > 100 µM
- TGI [19]: > 100 µM
- TGI [20]: > 100 µM
- TGI [23]: > 100 µM
- TGI [24]: > 100 µM
- TGI [25]: > 100 µM
- TGI [26]: > 100 µM
- TGI [27]: > 100 µM
- TGI [28]: > 100 µM
- TGI [29]: > 100 µM
- TGI [30]: > 100 µM
- TGI [32]: > 100 µM
- TGI [33]: > 100 µM
- TGI [34]: > 100 µM
- TGI [35]: > 100 µM
- TGI [36]: > 100 µM
- TGI [37]: > 100 µM
- TGI [38]: > 100 µM
- TGI [39]: > 89.1 µM
- TGI [40]: > 100 µM
- TGI [41]: > 100 µM
- TGI [58]: > 100 µM
- TGI [42]: > 100 µM
- TGI [43]: > 100 µM
- TGI [44]: > 74.6 µM
- TGI [46]: > 100 µM
- TGI [47]: > 100 µM
- TGI [48]: > 100 µM
- TGI [49]: 41.4 µM
- TGI [50]: > 100 µM
- TGI [51]: > 100 µM
- TGI [52]: > 100 µM
- TGI [53]: > 100 µM
- TGI [54]: > 100 µM
- TGI [55]: > 100 µM
- TGI [56]: > 100 µM
- TGI [57]: > 100 µM
